We go through 1 compound from ChEMBL document CHEMBL1137207, “Solution structure of amyloid beta-peptide (25-35) in different media” (J Med Chem, 2004).

The data set is described as follows: Retention time of the compound. Type of data set: ADME.

Where “and” joins values, the source holds several entries; their conditions need not be identical. Equal entries are not always repeated. Where a SMILES comes first, the peptide text is derived from it.

As for `CC[C@H](C)[C@H](NC(=O)[C@H](C)NC(=O)CNC(=O)[C@H](CCCCN)NC(=O)[C@H](CC(N)=O)NC(=O)[C@H](CO)NC(=O)CN)C(=O)N[C@H](C(=O)NCC(=O)N[C@@H](CC(C)C)C(=O)N[C@@H](CCSC)C(=O)O)[C@@H](C)CC` (H-GSNKGAIIGLM-OH), the tR is 13.37 min and 10.93 min.
